According to ChEMBL document CHEMBL3885861, “Open TG-GATES”:

Species: Rattus norvegicus
Test: Open TG-GATES - Regimen: Single
Assay type: toxicity, organism-based, Sprague-Dawley
Set-up: regimen Single, gender Male, age 6 weeks
Settings: in vivo, po, 10 mg/kg, route gavage, dose level Middle; for APTT / Bas / Eos / Fbg / Hb / Ht / Lym / MCH / MCHC / MCV / Mono / Neu / PT / Plat / RBC / Ret / WBC: tissue Blood; for KIDNEY_L / KIDNEY_R / KIDNEY_TOTAL: tissue Kidney; for LIVER: tissue Liver; for A/G / ALP / ALT / AST / BUN / CRE / Ca / Cl / DBIL / GLC / IP / K / LDH / Na / PL / RALB / TBIL / TC / TG / TP / gamma-GTP: tissue Plasma

Structure (SMILES): Nc1c2c(nc3ccccc13)CCCC2 [TACRINE]
- TERMINAL_BW (3 h): 204.5 g
- APTT (3 h): 22.1 s
- Bas (3 h): 0%
- Eos (3 h): 0.8%
- Fbg (3 h): 297.8 mg/dL
- Hb (3 h): 13.3 g/dL
- Ht (3 h): 38.8%
- Lym (3 h): 70%
- MCH (3 h): 21.2 pg
- MCHC (3 h): 34.4%
- MCV (3 h): 61.5 fL
- Mono (3 h): 2.2%
- Neu (3 h): 26.8%
- PT (3 h): 16.5 s
- Plat (3 h): 123.9 x10_4/uL
- RBC (3 h): 630.4 x10_4/ul
- Ret (3 h): 8.5%
- WBC (3 h): 68 x10_2/uL
- KIDNEY_L (3 h): 0.9 g
- KIDNEY_R (3 h): 0.9 g
- KIDNEY_TOTAL (3 h): 1.8 g
- LIVER (3 h): 9.4 g
- A/G (3 h): 1.3
- ALP (3 h): 1472.8 IU/L
- ALT (3 h): 45 IU/L
- AST (3 h): 90.4 IU/L
- BUN (3 h): 11.8 mg/dL
- CRE (3 h): 0.2 mg/dL
- Ca (3 h): 10.6 mg/dL
- Cl (3 h): 106.4 meq/L
- DBIL (3 h): 0.006 mg/dL
- GLC (3 h): 213.4 mg/dL
- IP (3 h): 8.7 mg/dL
- K (3 h): 3.7 meq/L
- LDH (3 h): 205.8 IU/L
- Na (3 h): 141.8 meq/L
- PL (3 h): 140.4 mg/dL
- RALB (3 h): 3.2 g/dL
- TBIL (3 h): 0.03 mg/dL
- TC (3 h): 74.6 mg/dL
- TG (3 h): 66.6 mg/dL
- TP (3 h): 5.8 g/dL
- gamma-GTP (3 h): 1 IU/L
- TERMINAL_BW (6 h): 199.6 g
- APTT (6 h): 19.8 s
- Bas (6 h): 0%
- Eos (6 h): 0.6%
- Fbg (6 h): 317.2 mg/dL
- Hb (6 h): 13.6 g/dL
- Ht (6 h): 39.5%
- Lym (6 h): 75.4%
- MCH (6 h): 21 pg
- MCHC (6 h): 34.4%
- MCV (6 h): 60.8 fL
- Mono (6 h): 2%
- Neu (6 h): 21.2%
- PT (6 h): 15.6 s
- Plat (6 h): 119.2 x10_4/uL
- RBC (6 h): 649.6 x10_4/ul
- Ret (6 h): 7.8%
- WBC (6 h): 74.9 x10_2/uL
- KIDNEY_L (6 h): 0.9 g
- KIDNEY_R (6 h): 0.9 g
- KIDNEY_TOTAL (6 h): 1.8 g
- LIVER (6 h): 8.5 g
- A/G (6 h): 1.3
- ALP (6 h): 1669.4 IU/L
- ALT (6 h): 41.8 IU/L
- AST (6 h): 82.4 IU/L
- BUN (6 h): 10.6 mg/dL
- CRE (6 h): 0.2 mg/dL
- Ca (6 h): 10.6 mg/dL
- Cl (6 h): 107.4 meq/L
- DBIL (6 h): 0.002 mg/dL
- GLC (6 h): 201.2 mg/dL
- IP (6 h): 8.8 mg/dL
- K (6 h): 4.4 meq/L
- LDH (6 h): 290.6 IU/L
- Na (6 h): 141.8 meq/L
- PL (6 h): 161 mg/dL
- RALB (6 h): 3.1 g/dL
- TBIL (6 h): 0.028 mg/dL
- TC (6 h): 82.2 mg/dL
- TG (6 h): 50.8 mg/dL
- TP (6 h): 5.5 g/dL
- gamma-GTP (6 h): 1 IU/L
- TERMINAL_BW (9 h): 197 g
- APTT (9 h): 21.5 s
- Bas (9 h): 0%
- Eos (9 h): 1%
- Fbg (9 h): 312.4 mg/dL
- Hb (9 h): 13.4 g/dL
- Ht (9 h): 38.9%
- Lym (9 h): 76.2%
- MCH (9 h): 21.4 pg
- MCHC (9 h): 34.5%
- MCV (9 h): 61.9 fL
- Mono (9 h): 2.2%
- Neu (9 h): 20%
- PT (9 h): 15.9 s
- Plat (9 h): 119.1 x10_4/uL
- RBC (9 h): 628.6 x10_4/ul
- Ret (9 h): 7.5%
- WBC (9 h): 74.6 x10_2/uL
- KIDNEY_L (9 h): 0.9 g
- KIDNEY_R (9 h): 0.9 g
- KIDNEY_TOTAL (9 h): 1.8 g
- LIVER (9 h): 8.3 g
- A/G (9 h): 1.3
- ALP (9 h): 1332.6 IU/L
- ALT (9 h): 42.6 IU/L
- AST (9 h): 86.8 IU/L
- BUN (9 h): 11.8 mg/dL
- CRE (9 h): 0.1 mg/dL
- Ca (9 h): 10.7 mg/dL
- Cl (9 h): 107.4 meq/L
- DBIL (9 h): 0.004 mg/dL
- GLC (9 h): 183.8 mg/dL
- IP (9 h): 9.7 mg/dL
- K (9 h): 4.2 meq/L
- LDH (9 h): 186.8 IU/L
- Na (9 h): 142.2 meq/L
- PL (9 h): 137.8 mg/dL
- RALB (9 h): 3.1 g/dL
- TBIL (9 h): 0.026 mg/dL
- TC (9 h): 77 mg/dL
- TG (9 h): 43.6 mg/dL
- TP (9 h): 5.5 g/dL
- gamma-GTP (9 h): 1 IU/L
- TERMINAL_BW (24 h): 217.1 g
- APTT (24 h): 21.1 s
- Bas (24 h): 0%
- Eos (24 h): 1%
- Fbg (24 h): 305 mg/dL
- Hb (24 h): 13.5 g/dL
- Ht (24 h): 39.3%
- Lym (24 h): 79%
- MCH (24 h): 21.2 pg
- MCHC (24 h): 34.4%
- MCV (24 h): 61.6 fL
- Mono (24 h): 3%
- Neu (24 h): 15.8%
- PT (24 h): 15.9 s
- Plat (24 h): 116.9 x10_4/uL
- RBC (24 h): 638 x10_4/ul
- Ret (24 h): 7.4%
- WBC (24 h): 98.6 x10_2/uL
- KIDNEY_L (24 h): 1 g
- KIDNEY_R (24 h): 1 g
- KIDNEY_TOTAL (24 h): 2 g
- LIVER (24 h): 9.7 g
- A/G (24 h): 1.3
- ALP (24 h): 1669.4 IU/L
- ALT (24 h): 40.4 IU/L
- AST (24 h): 77.2 IU/L
- BUN (24 h): 17 mg/dL
- CRE (24 h): 0.2 mg/dL
- Ca (24 h): 11 mg/dL
- Cl (24 h): 106 meq/L
- DBIL (24 h): 0.004 mg/dL
- GLC (24 h): 183 mg/dL
- IP (24 h): 7.9 mg/dL
- K (24 h): 4.3 meq/L
- LDH (24 h): 229 IU/L
- Na (24 h): 141.4 meq/L
- PL (24 h): 161.6 mg/dL
- RALB (24 h): 3.1 g/dL
- TBIL (24 h): 0.022 mg/dL
- TC (24 h): 81 mg/dL
- TG (24 h): 97 mg/dL
- TP (24 h): 5.5 g/dL
- gamma-GTP (24 h): 1 IU/L
